The subject of test [1] is mouse embryonic teratocarcinoma F9 cells. In words: Differentiation of mouse embryonic teratocarcinoma F9 cells (plasminogen activator secretion). Format: cell-based. As to conditions: concentration producing half of the maximum amount of plasminogen activator secreted. An excerpt:
Their activities may also be measured in tests of cell transactivation using pretransfected recombinant RAR or RXR receptors (B. A. Bernard et al, Biochemical and Biophysical Research Communication, vol. 186, 977-983 (1992); M. F. Boehm et al, Journal of Medicinal Chemistry, 37, 408-414 (1994)).
This differentiation was characterized by the secretion of the plasminogen activator into the culture medium. The activity of the compound is expressed by the AC50 value, which represents the concentration of test compound which produces half of the maximum amount of plasminogen activator secreted.

For another test, the target named is T1, RARγ (Homo sapiens, UniProt P13631).
T1 construct: expressed in transfected cells; host or cells: HeLa
T1 sequence (P13631 1-454): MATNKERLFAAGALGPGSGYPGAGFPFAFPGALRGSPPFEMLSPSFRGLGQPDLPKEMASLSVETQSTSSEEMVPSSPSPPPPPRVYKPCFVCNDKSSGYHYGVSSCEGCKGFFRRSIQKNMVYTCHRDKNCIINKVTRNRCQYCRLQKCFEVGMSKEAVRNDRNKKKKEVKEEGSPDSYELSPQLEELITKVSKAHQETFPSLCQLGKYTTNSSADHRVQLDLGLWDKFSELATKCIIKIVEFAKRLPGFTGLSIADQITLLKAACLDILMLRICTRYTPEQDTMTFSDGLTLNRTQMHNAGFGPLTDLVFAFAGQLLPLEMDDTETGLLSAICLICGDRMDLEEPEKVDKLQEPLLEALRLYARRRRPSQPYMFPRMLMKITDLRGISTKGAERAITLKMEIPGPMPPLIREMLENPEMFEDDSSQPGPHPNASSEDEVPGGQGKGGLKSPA
In words: RAR Transactivation, RARγ (HeLa cells cotransfected with human RAR expression vector and TREpp-tk-CAT reporter). As to conditions: concentration eliciting 50% of the maximum CAT activity. Format: cell-based. The protocol:
(§1) (b) This test was carried out as described in the publication: Bernard B. A., Bernardon J. M., Delescluse C., Martin C., Lenoir M. C., Maignan J., Carpentier B., Pilgrim W. R., Reichert U. and Shroot B., Biochem. Biophys. […] HeLa cells were cotransfected with expression vectors coding for human RARs and the reporter plasmid TREpp-tk-CAT. The value given represents the concentration of test compound which elicited 50% of the maximum CAT activity.

Test [2] has as its target T2, RARβ (Homo sapiens, UniProt P10826).
T2 sequence (P10826 1-448 isoform P10826-2): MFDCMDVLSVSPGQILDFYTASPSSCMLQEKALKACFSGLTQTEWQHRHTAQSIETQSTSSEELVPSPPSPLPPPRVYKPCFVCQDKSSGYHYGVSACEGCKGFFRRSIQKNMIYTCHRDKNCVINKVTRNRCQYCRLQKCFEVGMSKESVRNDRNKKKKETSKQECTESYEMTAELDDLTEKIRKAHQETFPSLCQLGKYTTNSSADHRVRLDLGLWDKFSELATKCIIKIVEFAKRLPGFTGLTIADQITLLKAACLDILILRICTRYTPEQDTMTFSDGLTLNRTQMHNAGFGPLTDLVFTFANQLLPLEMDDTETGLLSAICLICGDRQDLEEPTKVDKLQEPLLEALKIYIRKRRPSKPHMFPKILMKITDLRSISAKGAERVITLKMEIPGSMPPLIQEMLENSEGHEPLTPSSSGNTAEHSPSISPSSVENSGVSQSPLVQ
In words: RAR Transactivation, RARβ (HeLa cells cotransfected with human RAR expression vector and TREpp-tk-CAT reporter). The class given is cell-based. Set-up: expressed in transfected cells. As to conditions: concentration eliciting 50% of the maximum CAT activity. How it is done: as §1

Test [3] concerns the target T2, RARβ. In words: RAR binding, RARβ (competition binding, nuclear extracts of transfected cos-7 cells). Set-up: expressed in transfected cells; host or cells: COS-7 (nuclear extracts). As to conditions: recombinant human receptors, cos-7 nuclear extracts; competition with [H^3]-4-(5,6,7,8-tetrahydro-5,5,8,8-tetramethyl-2-anthracenyl benzoic acid). The protocol:
(c) The binding test was carried out on recombinant human receptors produced by the transfection of cos-7 cells with expression vectors coding for the RAR receptor subtypes.

For a further test, the target named is T3, RARα (Homo sapiens, UniProt P10276).
T3 construct: expressed in transfected cells
T3 sequence (P10276 1-462): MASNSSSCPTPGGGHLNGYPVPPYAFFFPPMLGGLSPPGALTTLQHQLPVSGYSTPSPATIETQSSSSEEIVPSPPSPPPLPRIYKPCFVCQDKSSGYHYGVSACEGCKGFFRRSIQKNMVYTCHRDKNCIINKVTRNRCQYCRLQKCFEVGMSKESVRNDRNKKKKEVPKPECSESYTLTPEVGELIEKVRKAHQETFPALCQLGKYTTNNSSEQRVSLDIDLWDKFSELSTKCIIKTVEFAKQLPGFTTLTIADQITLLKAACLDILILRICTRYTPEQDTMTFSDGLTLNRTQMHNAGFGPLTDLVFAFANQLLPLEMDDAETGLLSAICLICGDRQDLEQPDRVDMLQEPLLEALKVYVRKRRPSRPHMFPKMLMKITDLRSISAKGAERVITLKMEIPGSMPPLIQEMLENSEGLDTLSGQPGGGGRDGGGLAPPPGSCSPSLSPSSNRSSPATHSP
In words: RAR Transactivation, RARα (HeLa cells cotransfected with human RAR expression vector and TREpp-tk-CAT reporter). Format: cell-based. As to conditions: concentration eliciting 50% of the maximum CAT activity. The protocol:
as §1

Consider `O=C(O)c1ccc2c(c1)OCC(c1ccc(O)c(C34CC5CC(CC(C5)C3)C4)c1)=C2` [Example 13, 3-[(3-(1-adamantyl)-4-hydroxphenyl)-2H-1-benzopyran]-7-carboxylic acid], for which the AC50 – broadly, the concentration at which the activity in the assay is half-maximal – in test [1] amounted to 0.107 µM; at RARγ, 0.006 µM; at RARβ [2], 0.02 µM; on RARα, 0.047 µM. The Kd – broadly, the free concentration of one partner at which half of the binding sites on the other are occupied at equilibrium, for simple one-to-one binding – at RARβ [3] stood at 3.3 µM.

For `CC(C)(C)c1cc(C2=Cc3ccc(C(=O)O)cc3OC2)cc(C(C)(C)C)c1O` [Example 11, 3-[(3,5-di-tert-butyl-4-hydroxyphenyl)-2-H-1-benzopyran]-7-carboxylic acid], the half-maximal activity concentration (AC50) in test [1] is 0.32 µM; on RARγ, 0.157 µM; on RARβ [2], 0.077 µM. Besides, the Kd at RARβ [3] was determined as 3.68 µM.

With `CC1(C)CCC(C)(C)c2cc(C3=Cc4ccc(C(=O)O)cc4OC3)ccc21` [Example 2, 3-[(5,6,7,8-tetrahydro-5,5,8,8-tetramethyl-2-naphthyl)-2-H-1-benzopyran]-7-carboxylic acid], the AC50 in test [1] was determined as 0.058 µM; on RARγ it was 0.015 µM; on RARβ [2], 0.002 µM; on RARα, 0.022 µM.

For `COc1ccc(C2=Cc3ccc(C(=O)O)cc3OC2)cc1C12CC3CC(CC(C3)C1)C2` [Example 1, 3-[(3-(1-adamantyl)-4-methoxyphenyl)-2H-1-benzopyran]-7-carboxylic acid], the figures for the AC50 at RARγ, at RARβ [2] and on RARα were 0.004 µM, 0.002 µM and 0.008 µM, respectively.

Source of the values: US6194450A, “Polyaromatic heterocyclic compounds and pharmaceutical compositions comprised thereof” (Centre International de Recherches Dermatologiques Galderma, priority 1995, dated 2001).
